We go through 5 molecules from article PMC2850566 (Biochemical pharmacology, 2010).

Read-outs that look alike come from different tables or passages of the source.

In assay [1] the test system is rat cardiomyocyte. As to conditions: read-out: EC50cardio; rat cardiomyocyte contractility; cited from earlier work.
The subject of assay [2] is β2-AR. As to conditions: cardiomyocytes; cited from earlier work.
The target of assay [3] is human β2-AR (Homo sapiens, UniProt P07550). As to conditions: plotted from previously reported ΔH° and TΔS°; cited from earlier work.
Assay [4] relates to rat cardiomyocyte. Description: Rat cardiomyocyte contractility model. Type of assay: cell-based. As to conditions: read-out: EC50cardio, authors' unpublished data.

Sequence of human β2-AR (P07550 whole entry): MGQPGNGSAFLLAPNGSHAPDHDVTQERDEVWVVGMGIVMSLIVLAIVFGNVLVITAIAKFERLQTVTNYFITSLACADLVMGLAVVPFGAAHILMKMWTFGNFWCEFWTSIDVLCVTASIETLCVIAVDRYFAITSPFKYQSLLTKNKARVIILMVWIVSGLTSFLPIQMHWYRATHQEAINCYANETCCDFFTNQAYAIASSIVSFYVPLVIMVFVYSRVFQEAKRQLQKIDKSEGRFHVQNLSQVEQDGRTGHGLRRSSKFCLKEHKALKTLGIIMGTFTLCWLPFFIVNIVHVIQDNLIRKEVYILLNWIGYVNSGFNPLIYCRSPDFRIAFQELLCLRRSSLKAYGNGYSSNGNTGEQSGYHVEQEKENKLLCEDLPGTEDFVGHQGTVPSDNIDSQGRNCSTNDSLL

For `CC(Cc1ccc(O)cc1)NCC(O)c1cc(O)cc(O)c1` [(R,R')-fenoterol], the EC50 in assay [1] was 73 nM. For the same molecule, the “β2-AR coupling preference for G-proteins” value in assay [2] is “preferentially activates Gs signaling”.

Regarding `CC(Cc1ccc(O)cc1)NCC(O)c1cc(O)cc(O)c1` (racemic) [rac-fenoterol], in assay [3], the “Quadrant in the TΔS° and ΔH° plot” value is listed as “enthalpy-entropy driven process”.

Turning to `C[C@@H](Cc1ccc(O)cc1)NC[C@H](O)c1cc(O)cc(O)c1` [(R,S')-fenoterol], the EC50 in assay [1] was 575 nM.

Consider `CC(Cc1ccc(O)cc1)NCC(O)c1cc(O)cc(O)c1` [(S,S')-fenoterol], for which, in assay [4], the EC50 stood at 55000 nM.

As for `C[C@H](Cc1ccc(O)cc1)NC[C@@H](O)c1cc(O)cc(O)c1` [(S,R')-fenoterol], in assay [1], the EC50 is 2340 nM. For the same molecule, the “β2-AR coupling preference for G-proteins” value in assay [2] was “activates both Gs and Gi proteins”.
